In patent US11952364B2, “TRK inhibitors useful as anticancer drugs” (TYLIGAND BIOSCIENCE (SHANGHAI) LIMITED, priority 2018, dated 2024):
pIC50: −log10 of the molar value. Like-named read-outs stand apart in the source and are kept apart here. Each block holds one molecule with its values, some of them ahead of it.

Tested on: Ba/F3 LMNA-NTRK1-G667C cells
Test: Proliferation of Ba/F3 LMNA-NTRK1-G667C cells (CellTiter-Glo)
Type: cell-based, mouse
Settings: Mus musculus
Text: Ba/F3 LMNA-NTRK1-G667C is a stable transgenic cell line constructed by KYinno Biotechnology Co., Ltd. on mouse primary B cell Ba/F3 wherein NTRK1 has a mutation of G to Cat position 667 and is highly expressed and fused with LMNA to form LMNA-NTRK1-G667C. • [Test method]: Promega's CellTiter-Glo® Luminescent Cell Viability Assay kit was used to evaluate the inhibitory activity of the compounds on the proliferation of Ba/F3 LMNA-NTRK1-G667C cells. • [Instrument]: Spectramax M3 multifunctional microplate reader from Molecular Devices. • [Test materials]: Ba/F3 LMNA-NTRK1-G667C cell line (constructed by KYinno Co., Ltd. (Beijing)), 96-well transparent flat-bottomed black-walled cell culture plate (Corning, cat #3603), RPMI-1640 media (GE, cat #SH30027.01), fetal bovine serum FBS (Thermo Fisher, cat #10099-141), CellTiter-Glo® Luminescent Cell Viability Assay kit (Promega, cat #G7572), PBS (Solarbio, cat #P1020), DMSO (Sigma, cat #D2650). • [Experimental procedure]: When resuscitating Ba/F3 LMNA-NTRK1-G667C cells, the freezing tube was quickly shaken in a 37° C. water bath to melt within 1 minute. The thawed cell suspension was mixed uniformly with RPMI1640 medium containing 10% FBS, centrifuged at 1000 rpm for 5 minutes, and the supernatant discarded. 5 mL of complete medium (RPMI1640 medium with 10% FBS) was taken to resuspend the cell pellets, charged into a cell culture flask with a bottom area of 25 cm^2, and incubated in a cell incubator at 37° C., 95% humidity and 5% CO2. Cells were allowed to passage when the number of cells reached about 10^6 cells/mL. For cell passage, the old cell suspension was directly pipetted evenly, 1/5 of the cell suspension was kept, 4 mL of new complete medium was added, after pipetting evenly, the cell flask was placed in the cell incubator for further culturing. Cell plating was performed when the number of cells reached about 10^6 cells/mL again. For cell plating, 1/5 of the cell suspension was kept for further culturing as in the cell passage method, and the remaining 4/5 of the cell suspension was placed in a 15 mL centrifuge tube, detected for cell viability by Trypan blue exclusion method to ensure that cell viability was above 90%. A cell suspension with a density of 5.56×10^4 viable cells/mL was prepared with complete medium, and 90 μL of such cell suspension was added to a 96-well cell culture plate to obtain the cell density of 5000 viable cells/mL in the cell culture plate. A control group containing no cells, no compound and only complete medium (i.e. culture medium control) and a control group containing no compound but containing cells (i.e. cell control) were set. The cell plate was placed in a cell incubator overnight. The 10 mM compound stock solution in DMSO was first serially diluted with DMSO at a dilution factor of 3.16 times, to obtain 9 concentrations, and the 10th concentration was set as DMSO control without compound. Then, PBS was used to dilute the DMSO solutions of compounds of different concentrations, at a dilution factor of 100 times, so that the DMSO concentration in the compound solution of each concentration was 1%. Finally, 10 μL of each of the above solutions was added to the corresponding cell culture plate, so that the initial compound concentration was 10 μM, with the remaining concentrations being successively diluted at a dilution factor of 3.16 times, and the DMSO content in the cell culture plate was 0.1%. The cell plate was placed in a cell incubator and cultured for 72 hours. For endpoint detection, the CellTiter-Glo reagent was melted, and the cell plate was moved to room temperature to equilibrate for 30 minutes, added with 100 μL of CellTiter-Glo for each well, and shaken on an orbital shaker for 5 minutes to fully lyse the cells. The plate was kept at room temperature for 20 minutes to stabilize the luminescence signal, and the luminescence value of each well was scanned with a multi-functional microplate reader at full wavelength. • [Test samples] […]

pIC50 (BaF3, Table 9, read-out: Ba/F3 LMNA-NTRK1-G667C cell proliferation inhibitory activity (IC50)): 7.70
SMILES: COc1ccc(C(=O)Nc2ccc(Oc3cc4cnn5c4c(c3-c3cn[nH]c3)CC5)c(F)c2)c(=O)n1-c1ccc(F)cc1 [Example 28, N-(4-((5-(1H-pyrazol-4-yl)-6,7-dihydropyrrolo[3,2,1-hi]-indazol-4-yl)oxy)-3-fluorophenyl)-1-(4-fluorophenyl)-6-methoxy-2-oxo-1,2-dihydropyidine-3-carboxamide]

pIC50 (BaF3, Table 4-1, separate test, read-out: Ba/F3 LMNA-NTRK1-G667C, IC50): 8.70
SMILES: CCn1ncc2cc(Oc3ccc(NC(=O)c4ccc(C5CC5)n(-c5ccc(F)cc5)c4=O)cc3F)c(-c3cn[nH]c3)cc21 [Example 19, N-(3-fluoro-4-(1-ethyl-6-(1H-pyrazol-4-yl)-1H-indazol-5-yloxy)phenyl)-1-(4-fluorophenyl)-6-cyclopropyl-2-oxo-1,2-dihydropyridine-3-carboxamide]

pIC50 (BaF3, Table 4-2, separate test, read-out: Ba/F3 LMNA-NTRK1-G667C, IC50): 7.97
SMILES: CC(C)Oc1ccc(C(=O)Nc2ccc(Oc3cc4cnn(C)c4cc3-c3cn[nH]c3)c(F)c2)c(=O)n1-c1ccc(F)cc1 [Example 16, N-(3-fluoro-4-(1-methyl-6-(1H-pyrazol-4-yl)-1H-indazol-5-yloxy)phenyl)-1-(4-fluorophenyl)-6-isopropoxy-2-oxo-1,2-dihydropyridine-3-carboxamide]
